In assay [1] the target is T1, glutathione S-transferase (GST)-fusion human ERK2 protein (Homo sapiens, UniProt P28482).
T1 construct: purchased Carna Biosciences, Inc; host or cells: E. coli expression system
In words: ERK2 enzyme assay (LabChip mobility shift). It counts as biochemical. The conditions noted are these: 2 nM ERK2, 4.25 μM FL-Peptide 8, 43 μM ATP. In outline:
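GST-tagged human ERK2 from E. coli, at 2 nM, was preincubated 15 min at room temperature with compound in Hepes pH 7.5 with MgCl2, DTT and Brij35. The reaction ran 120 min at 25 °C with 4.25 μM FL-Peptide 8 and 43 μM ATP (final). Phosphopeptide fraction was measured by mobility-shift separation to give IC50.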

A further assay concerns the target T2, human PI3Kα protein (Homo sapiens, UniProt P42336).
T2 construct: purchased Carna Biosciences, Inc; host or cells: Baculovirus expression system
Put plainly: PI3Kα enzyme assay (ADP-Glo kinase assay). The assay is classed as biochemical. The conditions noted are these: 3 nM PI3Kα, 50 μM PIP2, 100 μM ATP. Summed up:
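Baculovirus-expressed biotinylated human PI3Kα (3 nM) preincubated 15 min with compound in Tris pH 7.5, MgCl2, BSA, then reacted 60 min at 25 °C with 50 μM PIP2 and 100 μM ATP. ADP quantified by ADP-Glo luminescence; IC50 calculated.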

The mark [2] stands for this setting: IC50 class, read-out: ERK2 Inhibitory Activity.
[3] abbreviates: IC50 class, read-out: PI3Kα Inhibitory Activity.

Read-outs that look alike come from different tables or passages of the source. Where only a bound is given, the exact number is not on record here.

T1 sequence (P28482 whole entry, the tested form may be a part): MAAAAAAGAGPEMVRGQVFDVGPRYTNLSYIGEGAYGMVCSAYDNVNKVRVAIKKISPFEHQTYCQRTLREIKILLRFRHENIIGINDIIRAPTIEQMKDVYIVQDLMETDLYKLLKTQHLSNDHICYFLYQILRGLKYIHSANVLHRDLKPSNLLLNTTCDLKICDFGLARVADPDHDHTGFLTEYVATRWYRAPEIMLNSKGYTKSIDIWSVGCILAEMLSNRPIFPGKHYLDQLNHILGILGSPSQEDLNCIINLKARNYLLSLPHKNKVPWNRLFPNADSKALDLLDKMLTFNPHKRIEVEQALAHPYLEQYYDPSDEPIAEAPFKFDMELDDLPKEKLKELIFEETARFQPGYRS
T2 sequence (P42336 whole entry): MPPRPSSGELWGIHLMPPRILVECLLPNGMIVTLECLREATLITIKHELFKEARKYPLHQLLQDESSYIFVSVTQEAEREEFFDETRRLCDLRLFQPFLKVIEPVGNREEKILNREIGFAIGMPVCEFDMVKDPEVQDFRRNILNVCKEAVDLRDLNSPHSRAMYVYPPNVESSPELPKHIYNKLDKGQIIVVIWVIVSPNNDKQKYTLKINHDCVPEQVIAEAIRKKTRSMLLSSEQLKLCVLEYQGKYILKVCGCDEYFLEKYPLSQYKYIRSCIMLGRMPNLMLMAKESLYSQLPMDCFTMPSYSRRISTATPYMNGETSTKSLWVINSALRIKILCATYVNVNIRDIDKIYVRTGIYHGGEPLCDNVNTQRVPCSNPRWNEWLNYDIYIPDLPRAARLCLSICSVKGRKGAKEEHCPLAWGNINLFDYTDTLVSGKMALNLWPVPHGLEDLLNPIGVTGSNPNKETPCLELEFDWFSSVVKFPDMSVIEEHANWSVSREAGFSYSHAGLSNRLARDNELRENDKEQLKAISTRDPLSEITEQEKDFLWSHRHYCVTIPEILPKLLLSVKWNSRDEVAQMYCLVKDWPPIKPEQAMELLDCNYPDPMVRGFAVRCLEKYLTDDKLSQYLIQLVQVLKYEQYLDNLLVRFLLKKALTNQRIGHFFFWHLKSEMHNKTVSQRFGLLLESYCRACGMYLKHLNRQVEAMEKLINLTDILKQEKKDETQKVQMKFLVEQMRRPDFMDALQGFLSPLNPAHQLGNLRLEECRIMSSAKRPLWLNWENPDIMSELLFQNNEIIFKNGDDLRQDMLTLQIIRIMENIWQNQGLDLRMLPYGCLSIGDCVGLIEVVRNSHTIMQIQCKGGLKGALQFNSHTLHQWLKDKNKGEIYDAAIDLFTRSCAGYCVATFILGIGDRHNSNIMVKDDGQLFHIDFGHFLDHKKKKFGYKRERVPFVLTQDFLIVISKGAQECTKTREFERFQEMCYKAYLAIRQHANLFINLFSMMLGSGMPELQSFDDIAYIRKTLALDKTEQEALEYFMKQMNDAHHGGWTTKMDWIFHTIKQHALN
T2 sequence (P27986 whole entry partner): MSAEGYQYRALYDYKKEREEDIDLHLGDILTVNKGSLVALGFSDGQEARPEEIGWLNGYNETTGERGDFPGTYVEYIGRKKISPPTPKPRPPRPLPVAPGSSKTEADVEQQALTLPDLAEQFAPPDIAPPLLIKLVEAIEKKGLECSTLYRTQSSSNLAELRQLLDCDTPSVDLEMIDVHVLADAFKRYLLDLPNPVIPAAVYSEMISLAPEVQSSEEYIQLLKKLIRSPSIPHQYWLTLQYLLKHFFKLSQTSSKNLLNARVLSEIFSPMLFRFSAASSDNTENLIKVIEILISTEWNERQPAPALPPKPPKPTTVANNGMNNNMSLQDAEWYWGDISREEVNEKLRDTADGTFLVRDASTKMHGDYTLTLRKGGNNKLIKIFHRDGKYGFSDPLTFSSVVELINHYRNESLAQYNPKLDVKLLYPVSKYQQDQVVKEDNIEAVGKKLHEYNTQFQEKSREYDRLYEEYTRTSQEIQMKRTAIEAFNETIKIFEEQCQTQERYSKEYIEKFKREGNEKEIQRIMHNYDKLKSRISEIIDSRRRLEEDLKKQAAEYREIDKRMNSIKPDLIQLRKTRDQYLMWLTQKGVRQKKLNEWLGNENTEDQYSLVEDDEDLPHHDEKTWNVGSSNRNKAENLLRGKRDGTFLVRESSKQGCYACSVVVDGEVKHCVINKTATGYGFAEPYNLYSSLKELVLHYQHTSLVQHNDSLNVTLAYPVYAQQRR

In the case of `Cn1cc(-c2cnc3ccc(NC(=O)NC4CCCC4)nc3c2)c(CO)n1` [Compound 0216], the IC50 (in assay [1] (setting [2]); on human PI3Kα protein (setting [3])) was less than 100 nM in each case.
With `CN1CCN(CCCn2cc(-c3cnc4ccc(NC(=O)NC5(C)CCCC5)nc4c3)cn2)CC1` [Compound 0257], the IC50 in assay [1] (setting [2]) was 100 to 1000 nM; on human PI3Kα protein (setting [3]), less than 100 nM.
Turning to `O=C(Nc1ccc2ncc(-n3ccnc3)cc2n1)NC1CCCC1` [Compound 0259], the IC50 in assay [1] (setting [2]) is less than 100 nM; at human PI3Kα protein (setting [3]) it was 100 to 1000 nM.
For `O=C(Nc1ccc2ncc(NC(=O)c3ccccc3)cc2n1)NC1CCCC1` [Compound 0134] the same measures were 1000 to 10000 nM and less than 100 nM.
In the case of `O=C(Nc1ccc2ncc(-c3cnn(CCCCN4C(=O)c5ccccc5C4=O)c3)cc2n1)NC1CCCC1` [Compound 0206], the values for the IC50 (in assay [1] (setting [2]); at human PI3Kα protein (setting [3])) were 100 to 1000 nM and less than 100 nM, respectively.
With `O=C(NCC1CCC1)Nc1ccc2ncc(-c3cn[nH]c3)cc2n1` [Compound 0188], the IC50 (in assay [1] (setting [2]); at human PI3Kα protein (setting [3])) was less than 100 nM in each case.
In the case of `O=C(NCCCCc1cccc(Cl)c1)Nc1ccc2ncc(-c3cn[nH]c3)cc2n1` [Compound 0166], the IC50 in assay [1] (setting [2]) is less than 100 nM; at human PI3Kα protein (setting [3]), 100 to 1000 nM.
For `COC1CN(c2cnc3ccc(NC(=O)NC4CCCC4)nc3c2)C1` [Compound 0242], the IC50 (in assay [1] (setting [2]); at human PI3Kα protein (setting [3])) was 100 to 1000 nM in each case.
Take `S=C(Nc1ccc2ncc(-c3cnn(CCCN4CCNCC4)c3)cc2n1)NC1CCCC1` [Compound 0220]: the IC50 (in assay [1] (setting [2]); at human PI3Kα protein (setting [3])) was less than 100 nM each time.
Turning to `C=Cn1cc(-c2cnc3ccc(NC(=O)NC4CCCC4)nc3c2)cn1` [Compound 0019], the IC50 (in assay [1] (setting [2]); at human PI3Kα protein (setting [3])) was less than 100 nM throughout.
On to `C[C@H](C[C@H](C)Oc1ccccc1)NC(=O)Nc1ccc2ncc(-c3cn[nH]c3)cc2n1` [Compound 0170], for which the values for the IC50 (in assay [1] (setting [2]); on human PI3Kα protein (setting [3])) were less than 100 nM and 100 to 1000 nM, respectively.
In the case of `O=C(Nc1ccc2ncc(-c3cnn(CCN4CCNCC4)c3)cc2n1)NC1CCCC1` [Compound 0051], the IC50 is 35 nM in assay [1] (read-out: ERK2, IC50); less than 100 nM in assay [1] (setting [2]); 6 nM at human PI3Kα protein (read-out: PI3Kα, IC50); less than 100 nM at human PI3Kα protein (setting [3]).
In the case of `CC(C)[C@@H](C)NC(=O)Nc1ccc2ncc(-c3cn[nH]c3)cc2n1` [Compound 0082], the IC50 (in assay [1] (setting [2]); on human PI3Kα protein (setting [3])) was less than 100 nM throughout.
`CCN(CC)CCn1cc(-c2cnc3ccc(NC(=O)NC4CCCC4)nc3c2)cn1` [Compound 0025]: the IC50 in assay [1] (setting [2]) was 100 to 1000 nM; at human PI3Kα protein (setting [3]) it was less than 100 nM.
Take `O=C(Nc1ccc2ncc(-c3cn[nH]c3)cc2n1)NC1CCOCC1` [Compound 0076]: the IC50 in assay [1] (setting [2]) was less than 100 nM; at human PI3Kα protein (setting [3]) it was 100 to 1000 nM.
For `O=C(Nc1ccc2ncc(-c3cnn(CCCCN4CCOCC4)c3)cc2n1)NC1CCCC1` [Compound 0207] the same measures were less than 100 nM and less than 100 nM.
In the case of `CCCCCNC(=O)Nc1ccc2ncc(-c3cn[nH]c3)cc2n1` [Compound 0094], the IC50 (in assay [1] (setting [2]); on human PI3Kα protein (setting [3])) was less than 100 nM in each case.
As to `C[C@H](NC(=O)Nc1ccc2ncc(-c3cn[nH]c3)cc2n1)C1CCCCC1` [Compound 0079], the IC50 (in assay [1] (setting [2]); on human PI3Kα protein (setting [3])) was less than 100 nM each time.
For `O=C(Nc1ccc2ncc(-c3cnn(CCCN4CCOCC4)c3)cc2n1)N[C@@H]1CCN(Cc2ccccc2)C1` [Compound 0175], the IC50 in assay [1] (setting [2]) was less than 100 nM; on human PI3Kα protein (setting [3]), 100 to 1000 nM.
Consider `CCCCNC(=O)Nc1ccc2ncc(-c3cn[nH]c3)cc2n1` [Compound 0093], for which the IC50 (in assay [1] (setting [2]); at human PI3Kα protein (setting [3])) was less than 100 nM each time.
Turning to `COc1cc(Nc2cnc3ccc(NC(=O)NC4CCCC4)nc3c2)cc(OC)c1` [Compound 0031], the IC50 in assay [1] (setting [2]) is 1000 to 10000 nM; on human PI3Kα protein (setting [3]), less than 100 nM.
Taken in the same sequence, the figures for `COCCNc1cnc2ccc(NC(=O)NC3CCCC3)nc2c1` [Compound 0010] were 1000 to 10000 nM and less than 100 nM.
For `COc1nc2ccc(NC(=O)NC3CCCC3)nc2cc1-c1cnn(C)c1` [Compound 0234] the same measures were more than 10000 nM and 1000 to 10000 nM.
Taken in the same sequence, the figures for `O=C(Nc1ccc2ncc(-c3cn[nH]c3)cc2n1)N[C@@H]1CCC[C@H]1OCc1ccccc1` [Compound 0160] were less than 100 nM and 1000 to 10000 nM.
As for `O=C(Nc1ccc2ncc(-c3cn[nH]n3)cc2n1)NC1CCCC1` [Compound 0156], the IC50 (in assay [1] (setting [2]); on human PI3Kα protein (setting [3])) was less than 100 nM throughout.
`CCCN1CCC(n2cc(-c3cnc4ccc(NC(=O)NC5CCCC5)nc4c3)cn2)CC1` [Compound 0229]: the IC50 in assay [1] (setting [2]) is 100 to 1000 nM; on human PI3Kα protein (setting [3]), less than 100 nM.
For `O=C(Nc1ccc2ncc(-c3cnn(C4CCNC4)c3)cc2n1)NC1CCCC1` (stereo not shown) [Compound 0144] the same measures were 100 to 1000 nM and less than 100 nM.
As for `O=C(NCC1CCOCC1)Nc1ccc2ncc(-c3cn[nH]c3)cc2n1` [Compound 0191], the values for the IC50 (in assay [1] (setting [2]); at human PI3Kα protein (setting [3])) were less than 100 nM and 100 to 1000 nM, respectively.
Taken in the same sequence, the figures for `O=C(Nc1ccc2ncc(N3CCN(c4ccccc4)CC3)cc2n1)NC1CCCC1` [Compound 0153] were more than 10000 nM and 100 to 1000 nM.
Regarding `O=C(Nc1ccc2ncc(-c3cn[nH]c3)cc2n1)NC1CCCC1` [Compound 0137], the IC50 in assay [1] (read-out: ERK2, IC50) was 7 nM; in assay [1] (setting [2]), less than 100 nM; on human PI3Kα protein (read-out: PI3Kα, IC50), 10 nM; on human PI3Kα protein (setting [3]), less than 100 nM.
On to `CN(CCO)CCn1cc(-c2cnc3ccc(NC(=O)NC4CCCC4)nc3c2)cn1` [Compound 0045], for which the IC50 (in assay [1] (setting [2]); at human PI3Kα protein (setting [3])) was less than 100 nM each time.
For the molecule `Cn1cc(-c2cc3nc(NC(=O)NC4CCCC4)ccc3nc2Cl)cn1` [Compound 0225], the IC50 (in assay [1] (setting [2]); on human PI3Kα protein (setting [3])) was more than 10000 nM in each case.
For `CC(C)(C)OC(=O)n1cc(-c2cnc3ccc(NC(=O)NC4CCCc5ccccc54)nc3c2)cn1` (stereo not shown) [Compound 0066], the IC50 in assay [1] (setting [2]) is less than 100 nM; on human PI3Kα protein (setting [3]), 1000 to 10000 nM.
For `O=C(Nc1ccc2ncc(-c3cn[nH]c3)cc2n1)N[C@@H]1CC[C@H](CF)C1` [Compound 0200] the same measures were less than 100 nM and less than 100 nM.
For the molecule `O=C(NCC12CC3CC(CC(C3)C1)C2)Nc1ccc2ncc(-c3cn[nH]c3)cc2n1` [Compound 0187], the IC50 in assay [1] (setting [2]) was less than 100 nM; at human PI3Kα protein (setting [3]), 1000 to 10000 nM.
Taken in the same sequence, the figures for `O=C(NCC1CCCOC1)Nc1ccc2ncc(-c3cn[nH]c3)cc2n1` (stereo not shown) [Compound 0190] were less than 100 nM and 100 to 1000 nM.
For `COCCn1cc(-c2cnc3ccc(NC(=O)NC4CCCC4)nc3c2)cn1` [Compound 0032], the IC50 (in assay [1] (setting [2]); on human PI3Kα protein (setting [3])) was less than 100 nM each time.
For the molecule `O=C(Nc1ccc2ncc(-c3ccnc(O)c3)cc2n1)NC1CCCC1` [Compound 0023], the IC50 in assay [1] (setting [2]) was 100 to 1000 nM; on human PI3Kα protein (setting [3]) it was less than 100 nM.
For `O=C(Nc1ccc2ncc(-c3ccc(CO)cc3)cc2n1)NC1CCCC1` [Compound 0042] the same measures were less than 100 nM and 100 to 1000 nM.
For `Cn1cc(-c2cnc3ccc(NC(=O)NC4CCCC4)nc3c2)cn1` [Compound 0003], the IC50 (in assay [1] (setting [2]); at human PI3Kα protein (setting [3])) was less than 100 nM throughout.
For the molecule `O=C(Nc1ccc2ncc(Oc3cnccn3)cc2n1)NC1CCCC1` [Compound 0224], the IC50 in assay [1] (setting [2]) was in the range of 1000 to 10000 nM; at human PI3Kα protein (setting [3]), 100 to 1000 nM.
Taken in the same sequence, the figures for `CS(=O)(=O)Nc1cccc(-c2cnc3ccc(NC(=O)NC4CCCC4)nc3c2)c1` [Compound 0035] were less than 100 nM and less than 100 nM.

The record behind these values is patent US8841456B2, “1,5-naphthyridine derivative or salt thereof” (FUJIFILM Corporation, priority 2011, dated 2014).
